Laboratory results from patent US10859587B2, “Application of artificially expressed HSP27 protein in detecting a residue of a β2-adrenergic receptor agonist-based drug” (HENAN ACADEMY OF AGRICULTURAL SCIENCE, priority 2016, dated 2020).

Experiments:
[1] = system: artificially expressed HSP27 protein; assay: ELISA binding experiment between HSP27 protein and biotin-conjugated small molecules; settings: 100 ng/mL biotin-conjugated small molecule; HSP27 coated in gradient from 100 μg/mL
Experimental: 1. The bacteria solution of BL21 (DE3) host bacteria of artificially expressed HSP27 was subjected to ultrasonication, and then coated in gradient on a ELISA plate with an initial concentration of 100 μg/mL (based on the protein) in an amount of 50 μL/well;
2. 100 ng/mL of small molecules conjugated biotin was added into the resultant ELISA plate in an amount of 50 μL/well, mixed well on a shaker, and incubated at 37° C. for 30 min in the dark; the ELISA plate was washed with an ELISA plate washing machine for 4 times, or the liquid in the wells of the ELISA plate was manually removed by shaking out, each well was filled with diluted buffer solution, and then shaken out the liquid to dry again, and washing as repeated in this way for 4 times;
3. HRP-labeled streptavidin conjugate was added into the ELISA plate, and the reaction was carried out at 37° C. for 30 min; washing was performed in the same way as the above step for 4 times.
4. TMB solution was added into corresponding microwells according to the required amount of 100 μL per well, and the plate was shaken on the ELISA plate shaker for 30 s, and subjected to color development at room temperature for 10 min;
5. 50 μL of 2 mol/L sulfuric acid was added to each well to terminate the reaction, and the plate was shaken on the ELISA plate shaker for 30 s, and then the absorbance at 450 nm of each well was read with a microplate reader, and the results were judged (see FIG. 2 for the results).

[2] = system: HSP27 polyclonal antiserum; assay: ELISA identification of artificially expressed HSP27 protein with HSP27 polyclonal antiserum; type: binding; settings: HSP27 1 μg/mL
Experimental: The artificially expressed HSP27 protein at an optimal concentration was selected as a coating antigen, and coated on the ELISA plate in an amount of 50 μL/well. The plate was placed in a 37° C. constant temperature incubator for reaction for 2 h, washed with PBST for 4 times, and air-dried at room temperature. BSA with a mass fraction of 1% was added as a blocking solution in amount of 200 μL/well, and reaction was carried out at a constant temperature of 37° C. for 1 h. The resultant plate was washed with PBST for 4 times, and air-dried at room temperature. Then, HSP27 polyclonal antiserum with gradient concentrations was added at 50 μL/well, a negative control (NC) was set, and the plate was held at 37° C. for 30 min, and washed for 4 times. 50 μL of goat anti-mouse secondary antibody (1:1000) was added to each well, and the plate was held at 37° C. for 30 min, and then washed for 4 times. The color development reaction was carried out with TMB color developing solution in an amount of 100 μL/well, and 10 minutes later, the reaction was terminated with 50 μL of 2 mol/L H2SO4. The absorbance of each well was read at 450 nm with a microplate reader.

CC(CCc1ccc(O)cc1)NCC(O)c1ccc(O)cc1 (racemic) [Ractopamine]
binding to HSP27 (ELISA, absorbance at 450 nm, FIG. 2) [1]: can bind to HSP27

CC(C)(C)NCC(O)c1cc(Cl)c(N)c(Cl)c1 (stereo not shown) [Clenbuterol]
binding to HSP27 (ELISA, absorbance at 450 nm, FIG. 2) [1]: can bind to HSP27

CC(Cc1ccc(O)cc1)NCC(O)c1cc(O)cc(O)c1 (stereo not shown) [Fenoterol]
binding to HSP27 (ELISA, absorbance at 450 nm, FIG. 2) [1]: can bind to HSP27

artificially expressed HSP27 protein: HSP27 CDS cloned in pLSLa vector, expressed in BL21 (DE3) with IPTG, purified by agarose resin column
absorbance at 450 nm ([2]; serum dilution ratio 5000): 4.00
absorbance at 450 nm ([2]; serum dilution ratio 10000): 3.92
absorbance at 450 nm ([2]; serum dilution ratio 20000): 4.00
absorbance at 450 nm ([2]; serum dilution ratio 40000): 3.77
absorbance at 450 nm ([2]; serum dilution ratio 80000): 3.50
absorbance at 450 nm ([2]; serum dilution ratio 160000): 2.60
absorbance at 450 nm ([2]; serum dilution ratio 320000): 1.63
absorbance at 450 nm ([2]; serum dilution ratio 640000): 0.97
absorbance at 450 nm ([2]; serum dilution ratio 1280000): 0.67
absorbance at 450 nm ([2]; serum dilution ratio 2560000): 0.51
